Test results taken from US8361988B2, “Nucleoside and nucleotide analogues with quaternary carbon centers and methods of use” (Institut de Recherches Cliniques de Montreal, priority 2007, dated 2013).

What was measured:
[1] = target: T1, Drosophila melanogaster dNK (Drosophila melanogaster, UniProt Q9XZT6); assay: Phosphorylation assay (spectrophotometric coupled-enzyme), D. melanogaster dNK; format: biochemical; settings: substrate at 100 μM, 37° C., 1 mM ATP, triplicate
T1 sequence (Q9XZT6 1-250): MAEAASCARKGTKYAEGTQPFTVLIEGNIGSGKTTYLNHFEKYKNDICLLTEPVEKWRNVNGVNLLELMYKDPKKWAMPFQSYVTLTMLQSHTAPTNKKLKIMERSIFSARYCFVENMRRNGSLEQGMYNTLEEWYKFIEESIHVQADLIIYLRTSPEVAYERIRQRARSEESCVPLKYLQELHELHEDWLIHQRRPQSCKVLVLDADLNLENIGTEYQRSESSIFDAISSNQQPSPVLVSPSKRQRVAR
Procedure: Compounds of the invention were also tested in a phosphorylation assay using three deoxynucleoside kinases. […] The compounds were at substrate concentration of 100 μM.
Kinetic assay. […] Briefly, the individual nucleosides at 100 μM were prepared in reaction buffer containing 50 mM Tris-HCl (pH 7.5), 0.1 M KCl, 5 mM MgCl2, 1 mM DTT, 1 mM ATP, 0.21 mM phosphoenolpyruvate, 0.18 mM NADH, and 2 units/ml pyruvate kinase and 2 units/ml lactate dehydrogenase (Roche Biochemicals, Indianapolis, Ind.). Assays were performed at 37° C. by measuring the absorbance change at 340 nm. The enzyme amount was adjusted to limit NADH turnover to 10% over the time of the experiment. All experiments were performed in triplicate.

[2] = in vitro; settings: human, NCI H2052 cells
[3] = in vitro; settings: human, NCI H1395 cells
[4] = MTT cell proliferation assay, ZR-75-1; format: cell-based; settings: human, ZR-75-1 cells, concentration causing 50% cell death of initial cell count over 24 hours, 1% DMSO
Procedure: (§1) The antitumor activities of the compounds of the invention were evaluated by a cellular proliferation assay. The MTT [3-(4,5-dimethylthiazol-2-yl)-2,5-diphenyltetrazolium bromide] cell proliferation assay, first described by Mosmann (Mosmann T., “Rapid colorimetric assay for cellular growth and survival: application to proliferation and cytotoxicity assays,” J. Immunol. Methods 1983 Dec. 16; 65(1-2):55-63, and incorporated by reference in its entirety) is based on the ability of active mitochondrial reductase enzymes from viable cells to cleave the tetrazolium rings of the pale yellow MTT. The cleavage reaction form a purple formazan crystals which is largely impermeable to cell membranes resulting in its accumulation within healthy cells. Solubilisation of the cells by addition of a detergent liberates and solubilizes the formazan crystals. The number of surviving cells is directly proportional to the level of the formazan product created. The color can then be quantified spectrophotometrically. The production of purple formazan in cells treated with a compound is measured relative to the production in control cells, and dose-response curves can be generated. This assay measures the cell proliferation rate and conversely, when metabolic events lead to apoptosis or necrosis, the reduction in cell viability, thus also allowing the evaluation of the cytotoxicity of the analogues synthesized in the laboratory.
(§2) For Tables 3 and 4, the assays were performed with 1% DMSO. The abbreviation “n.d.” means “not determined.” The values EC50, CC50, and SI have the following definitions.
(§3) Cell growth equals total cell count without any inhibitor after 72 hours minus initial cell count. Total cell counts after 72 hrs of growth range from 230 to 346% of initial cell counts depending on the cell line.
(§4) Total cell counts after 24 hrs of growth range from 103 to 109% of initial cell counts depending on the cell line.
(§5) SI: Selectivity Index is the ratio CC50/EC50.

[5] = tested on: ZR-75-1; assay: MTT cell proliferation assay, ZR-75-1; format: cell-based; settings: Homo sapiens, ZR-75-1, 72 h, concentration reducing cell growth by 50% after 72 hours, 1% DMSO
Procedure: as §1, §2, §3, §4, §5

[6] = target: Thermotoga maritima thymidine kinase (Thermotoga maritima, UniProt Q9WYN2); assay: Phosphorylation assay (spectrophotometric coupled-enzyme), T. maritima TK; format: biochemical; settings: substrate at 100 μM, 37° C., 1 mM ATP, triplicate
Procedure: Compounds of the invention were also tested in a phosphorylation assay using three deoxynucleoside kinases. The kinases include human dCK, which is responsible for the activation of numerous nucleoside analog prodrugs; Drosophila melanogaster dNK, which is the fastest known kinases with the broadest substrate specificity profile; and Thermotoga maritima thymidine kinase, which is a good surrogate for human thymidine kinase 1, a member of the distinct type II kinase subfamily. The compounds were at substrate concentration of 100 μM.
Kinetic assay. Substrate phosphorylation was determined using a spectrophotometric coupled-enzyme assay (Munch-Petersen et al. (2000) J. Biol. Chem. vol. 275p. 66′73-66′79; Schelling et al. (2001) Anal. Biochem vol. 295 p. 82-8′7). Briefly, the individual nucleosides at 100 μM were prepared in reaction buffer containing 50 mM Tris-HCl (pH 7.5), 0.1 M KCl, 5 mM MgCl2, 1 mM DTT, 1 mM ATP, 0.21 mM phosphoenolpyruvate, 0.18 mM NADH, and 2 units/ml pyruvate kinase and 2 units/ml lactate dehydrogenase (Roche Biochemicals, Indianapolis, Ind.). Assays were performed at 37° C. by measuring the absorbance change at 340 nm. The enzyme amount was adjusted to limit NADH turnover to 10% over the time of the experiment. All experiments were performed in triplicate.

[7] = tested on: PFSK-1; assay: MTT cell proliferation assay, PFSK-1; format: cell-based; settings: Homo sapiens, PFSK-1, 72 h, concentration reducing cell growth by 50% after 72 hours, 1% DMSO
Procedure: (§6) The antitumor activities of the compounds of the invention were evaluated by a cellular proliferation assay. […] The cleavage reaction form a purple formazan crystals which is largely impermeable to cell membranes resulting in its accumulation within healthy cells. Solubilisation of the cells by addition of a detergent liberates and solubilizes the formazan crystals. The number of surviving cells is directly proportional to the level of the formazan product created. The color can then be quantified spectrophotometrically. The production of purple formazan in cells treated with a compound is measured relative to the production in control cells, and dose-response curves can be generated. This assay measures the cell proliferation rate and conversely, when metabolic events lead to apoptosis or necrosis, the reduction in cell viability, thus also allowing the evaluation of the cytotoxicity of the analogues synthesized in the laboratory.
as §2
(§7) Cell growth equals total cell count without any inhibitor after 72 hours minus initial cell count.
as §5

[8] = MTT cell proliferation assay, PFSK-1; format: cell-based; settings: human, PFSK-1 cells, concentration causing 50% cell death of initial cell count over 24 hours, 1% DMSO
Procedure: as §6, §2, §7, §5

[9] = in vitro; settings: human, MOLT-4 cells

Sequence of Thermotoga maritima thymidine kinase (Q9WYN2 whole entry): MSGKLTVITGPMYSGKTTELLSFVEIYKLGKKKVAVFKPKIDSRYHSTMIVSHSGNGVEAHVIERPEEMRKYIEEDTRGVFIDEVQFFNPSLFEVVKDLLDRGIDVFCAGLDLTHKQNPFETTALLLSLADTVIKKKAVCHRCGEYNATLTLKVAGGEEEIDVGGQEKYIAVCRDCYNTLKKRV

SMILES	D. melanogaster dNK substrate phosphorylation ([1]; listed as LCB-1007-1)	CC50 at 24 h [2] [µM]	CC50 at 24 h [3] [µM]	CC50 at 24 h [4] [µM]	EC50 [5] [µM]	T. maritima TK substrate phosphorylation [6]	EC50 [7] [µM]	CC50 at 24 h [8] [µM]	D. melanogaster dNK substrate phosphorylation [1]	D. melanogaster dNK substrate phosphorylation ([1]; listed as LCB-1004-1)	T. maritima TK substrate phosphorylation ([6]; listed as LCB-1004-1)	CC50 at 24 h [9] [µM]	D. melanogaster dNK substrate phosphorylation ([1]; listed as LCB-1023-1)	T. maritima TK substrate phosphorylation ([6]; listed as LCB-1023-1)
Cc1cn([C@H]2CC(C)(CO)[C@@H](CO)O2)c(=O)[nH]c1=O (mixture of isomers) [LCB-1007]	0.84 10^6 μmol/min mg	> 500	> 500	> 500	460	2.2 10^−3 μmol/min mg	> 500	> 500						
CC1(CO)C[C@H](n2ccc(=O)[nH]c2=O)O[C@@H]1CO (mixture of isomers) [LCB-1006]		> 500	> 500	> 500	> 500	2.7 10^−3 μmol/min mg	> 500	> 500	0.22 10^6 μmol/min mg					
Cc1cn([C@@H]2CC(C)(CO)[C@@H](CO)O2)c(=O)[nH]c1=O (mixture of isomers) [LCB-1004]		> 500	> 500	> 500	420		> 500	> 500		4.2 10^6 μmol/min mg	4.1 10^−3 μmol/min mg			
C[C@@]12CC(n3ccc(N)nc3=O)O[C@@H]1COC2=O (mixture of isomers) [LCB-1029]		> 500	> 500	> 500	> 500		> 500	> 500				> 500		
COC(=O)C1(C)C[C@H](n2ccc(=O)[nH]c2=O)O[C@@H]1CO (mixture of isomers) [LCB-1005]		> 500	> 500	> 500	> 500	<1 10^−3 μmol/min mg	> 500	> 500	<0.1 10^6 μmol/min mg					
COC(=O)C1(C)C[C@@H](n2cc(C)c(=O)[nH]c2=O)O[C@@H]1CO (mixture of isomers) [LCB-1001]		295	> 500	> 500	> 500	<1 10^−3 μmol/min mg	> 500	> 500	<0.1 10^6 μmol/min mg					
CC1(C(N)=O)CC(n2cc(F)c(N)nc2=O)O[C@@H]1CO (mixture of isomers) [LCB-1030]		> 500	> 500	> 500	> 500		> 500	> 500				> 500		
COC(=O)C1(C)C[C@H](n2cc(F)c(=O)[nH]c2=O)O[C@@H]1CO (mixture of isomers) [LCB-1023, 5-(5-Fluoro-2,4-dioxo-3,4-dihydro-2H-pyrimidin-1-yl)-2-hydroxymethyl-3-methyl-tetrahydro-furan-3-carhoxylic acid methyl ester]													0.33 10^6 μmol/min mg	2.1 10^−3 μmol/min mg
COC(=O)C1(C)C[C@H](n2cc(C)c(=O)[nH]c2=O)O[C@@H]1CO (mixture of isomers) [LCB-1009-2]						4.9 10^−3 μmol/min mg			3.44 10^6 μmol/min mg					
Cc1cn([C@H]2CC(C)(CO)[C@@H](CO)O2)c(=O)[nH]c1=O (mixture of isomers) [LCB-1007-2]						2.2 10^−3 μmol/min mg			0.74 10^6 μmol/min mg					
Cc1cn([C@@H]2CC(C)(CO)[C@@H](CO)O2)c(=O)[nH]c1=O (mixture of isomers) [LCB-1004-2]						<1 10^−3 μmol/min mg			3.7 10^6 μmol/min mg					
C[C@@]12CC(n3cc(F)c(N)nc3=O)O[C@@H]1COC2=O (mixture of isomers) [LCB-1028]		> 500	> 500	> 500	> 500		> 500	> 500				> 500		
Cc1cn([C@H]2C[C@H](O)[C@@H](CO)O2)c(=O)[nH]c1=O [Thymidine, reference compound]						830 10^−3 μmol/min mg								
COC(=O)C1(C)C[C@@H](n2ccc(=O)[nH]c2=O)O[C@@H]1CO (mixture of isomers) [LCB-1002]		423	493	> 500	> 500	2.2 10^−3 μmol/min mg	> 500	> 500	<0.1 10^6 μmol/min mg					
Cc1cn([C@H]2CC(C)(CO)[C@@H](CO)O2)c(=O)[nH]c1=O (mixture of isomers) [LCB-1032, (±) 1-(-4,5-bis(hydroxymethyl)-4-methyltetrahydrofuran-2-yl)-5-methylpyrimidine-2,4(1H,3H)-dione]												> 500		
COC(=O)C1(C)CC(n2cc(C)c(=O)[nH]c2=O)OC1CO (racemic) [LCB-1010-2, (±) methyl 2-(hydroxymethyl)-3-methyl-5-(5-methyl-2,4-dioxo-3,4-dihydropyrimidin-1(2H)-yl)tetrahydrofuran-3-carboxylate]						5.6 10^−3 μmol/min mg			2.13 10^6 μmol/min mg					
CC1(CO)C[C@@H](n2ccc(=O)[nH]c2=O)O[C@@H]1CO (mixture of isomers) [LCB-1008]		> 500	> 500	> 500	> 500	<1 10^−3 μmol/min mg	> 500	> 500	0.36 10^6 μmol/min mg					
